Experimental data as given in patent publication US11135457B2, “Skincare compositions” (Reckitt Benckiser Healthcare International Limited, priority 2009, dated 2021).

Columns and labels:
Type in all cases: cell-based
TNF-α = assay: In vitro EpiDerm skin model, PMA irritant: TNF-α release; details: for TNFα + PMA / TNFα no PMA: EpiDerm skin model; for TNFα + PMA: + PMA irritant; for TNFα no PMA: no PMA irritant
Method: (§1) The purpose of the in vitro testing was to evaluate the potential anti-inflammatory action of compositions according to the present invention.
(§2) In vitro tests were carried out as follows: • take an irritant treated EpiDerm™ skin model. Initial inflammation was measured by the cytokine release after exposure to a single dose of irritant. • apply test compositions to the irritant treated EpiDerm skin • anti-inflammatory potential was then measured by reduction in cytokine release • specifically, the levels of cytokines TNF-α, IL-6 and IL-8 were measured to give a picture of the performance of the product across the lifecycle of an acne event or related skin inflammation.
(§3) Experimental design follows standard procedures, using phorbol-12-myristate 13-acetate (PMA) as irritant. Test samples were applied by pipette as solutions to the Epiderm tissue, and each sample was tested in triplicate against positive and negative controls. Anti-inflammatory activity measured by relative decrease in cytokine release in irritant-treated tissue compared to non-irritant treated tissue.
(§4) The separate active components of an example according to the invention were tested, along with some combinations in pairs and one combination lacking the salicylic acid. Where these actives were applied, they were in the same w/w ratio as in the example composition, example 9.

IL-6 = assay: In vitro EpiDerm skin model, PMA irritant: IL-6 release; details: for IL-6 + PMA: + PMA irritant; for IL-6 no PMA: no PMA irritant
Method: as §1, §2, §3, §4

IL-8 = assay: In vitro EpiDerm skin model, PMA irritant: IL-8 release; details: no PMA irritant (first IL-8 column, c6)
Method: as §1, §2, §3, §4

EpiDerm skin model = assay: MTT viability, EpiDerm skin model

Row | SMILES | TNFα + PMA (TNF-α) [pg/mL] | TNFα no PMA (TNF-α) [pg/mL] | IL-6 + PMA (IL-6) [pg/mL] | IL-6 no PMA (IL-6) [pg/mL] | IL-8 no PMA (IL-8) [pg/mL] | MTT < 95% (EpiDerm skin model) [%] | anti-inflammatory action (reduction in cytokine release) (TNF-α; irritant (PMA) treated EpiDerm skin model, cytokines TNF-α, IL-6 and IL-8 taken together)
1 | CC1(C)[C@@H](O[C@H]2O[C@H](C(=O)[O-])[C@@H](O)[C@H](O)[C@H]2O[C@@H]2O[C@H](C(=O)[O-])[C@@H](O)[C@H](O)[C@H]2O)CC[C@]2(C)[C@H]3C(=O)C=C4[C@@H]5C[C@@](C)(C(=O)O)CC[C@]5(C)CC[C@@]4(C)[C@]3(C)CC[C@@H]12.[K+].[K+] [Dipotassium glycyrrhizinate (GLYR)] | 78.48 | -0.636 | 7.591 | -1.781 | 44.413 | 93.7 | 
2 | NC(=O)c1cccnc1 [Nicotinamide (NA)] | 40.202 | -0.171 | -2.712 | -4.294 | 47.54 | 96.8 | 
3 | C[C@]12CCC(=O)C=C1CC[C@@H]1[C@@H]2[C@@H](O)C[C@@]2(C)[C@H]1CC[C@]2(O)C(=O)CO [Positive control (hydrocortisone)] | -0.378 |  | -4.358 |  |  |  | 
4 | O=C(O)c1ccccc1O [Salicylic acid (SCA)] | 12.265 | -0.068 | 6.159 | -1.445 | 72.757 | 103.2 | 
5 | CC(O)C(=O)[O-].[Na+] (stereo not drawn) [Sodium Lactate (SLA)] | 92.434 | 0.882 | 22.6 | 4.909 | 104.549 | 99.1 | 
6 | O=C(O)c1ccccc1O [salicylic acid, reference compound] |  |  |  |  |  |  | acts inter alia as an anti-inflammatory
